Experiments:
[1] = absolute recovery over mixed-bed multilayer solid-phase extraction; higher = better recovery; conditions: enrichment method: SPE
In short: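 Absolute recovery rests on background-corrected response ratios of pre- versus post-spiked samples, averaged over at least two replicates. Wastewater (100–250 mL, pH 6.5, glass-fibre filtered) was spiked at 1000 ng/L and unfiltered nanopure water (1000 mL) at 200 ng/L, before or after three-layer mixed-bed cartridge extraction or not at all, with exceptions for some classes. Analysis after internal standard addition used liquid chromatography with high-resolution tandem mass spectrometry in both ionisation modes.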

[2] = LC retention time (Atlantis T3, 5-95% MeOH gradient, 0.1% formic acid); higher = more retained / less polar
In short: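 Retention times were recorded for reference standards (purity ≥ 95%) on a polar reversed-phase C18 column (Atlantis T3, 3 × 150 mm, 3 μm) at 0.3 mL/min. Elution used water and methanol, each with 0.1% formic acid, in a gradient from 5 to 95% methanol over 17.5 min. Detection was by high-resolution tandem mass spectrometry on a QExactive Plus, with positive and negative electrospray in separate runs. Peaks were found and integrated in TraceFinder (5 ppm tolerance, at least three points per peak) and then checked by hand.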

[3] = absolute recovery over vacuum-assisted evaporative concentration; higher = better recovery; conditions: enrichment method: VEC
In short: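 After spiking with standards before concentration, after concentration or not at all, at 1000 ng/L for wastewater or 200 ng/L for nanopure and surface water with class- and compound-specific adjustments, samples of 6 mL influent, 15 mL effluent and 60 mL surface or nanopure water were evaporated at 55 °C and 20 mbar to about 0.3 mL. They were brought to 0.4 mL, centrifuged, given internal standards and analysed by LC-HRMS/MS. Absolute recovery, (response ratio pre − unspiked)/(post − unspiked) × 100, used averages of ≥ 2 replicates.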

Row | absolute recovery ([1]; nanopure water) [%] | absolute recovery ([1]; surface water) [%] | absolute recovery ([1]; wastewater effluent) [%] | absolute recovery ([1]; wastewater influent) [%] | LC retention time [2] [min] | absolute recovery ([3]; wastewater effluent) [%] | absolute recovery ([3]; wastewater influent) [%] | Structure (SMILES)
1 | 102 | 112 | 102 | 102 | 9.03 | 101 | 106 | COc1nc(C)nc(N)n1 [2-Amino-4-methoxy-6-methyl-1-3-5-triazin]
2 | 86.5 | 80.2 | 80.9 | 94 | 18 | 102 | 57.5 | CC12CCC(=O)C=C1CCC1C2C(O)CC2(C)C1CCC2(O)C(=O)CO (centres undefined) [Hydrocortison]
3 | 10.3 | 3.8 | 4.2 | 6.4 | 3.46 | 124 | 96.5 | Nc1ccc(S(=O)(=O)[O-])cc1 [Sulfanilic-acid]
4 | 97.4 | 81.6 | 79 | 87 | 18.1 | 97.4 | 92.2 | CC12CCC3=C4CCC(=O)C=C4CCC3C1CCC2(O)CC#N (centres undefined) [Dienogest]
5 | 94.7 | 98 | 91.7 | 96.1 | 17.2 | 99.5 | 104 | Cc1ccc(NS(=O)(=O)N(C)C)cc1 [N-N-dimethyl-N-(4-methylphenyl)-sulfamide]
6 | 95.4 | 98.7 | 102 | 94.8 | 19.3 | 120 | 95.3 | CCOc1cc(CC(=O)NC(CC(C)C)c2ccccc2N2CCCCC2)ccc1C(=O)[O-] (centres undefined) [Repaglinide]
7 | 104 | 98.1 | 98.7 | 121 | 13.1 | 117 | 94.9 | CCC1OC(=O)C(C)C(OC2CC(C)(OC)C(O)C(C)O2)C(C)C(OC2OC(C)CC([NH2+]C)C2O)C(C)(O)CC(C)C[NH+](C)C(C)C(O)C1(C)O (centres undefined) [N-Desmethyl-Azithromycin]
8 | 84.5 | 78.7 | 88.3 | 82.7 | 10.1 | 105 | 107 | CCNc1nc(O)nc(NCC)n1 [Simazin-2-hydroxy]
9 | 76.9 | 82.5 | 76.2 | 85.7 | 14.1 | 105 | 101 | C[NH2+]CC(c1ccc(OC)cc1)C1(O)CCCCC1 (centres undefined) [N-Desvenlafaxin]
10 | 108 | 108 | 99.5 | 86.7 | 9.49 | 106 | 98.7 | OCC(O)C[NH+]1CCN(c2ccccc2)CC1 (centres undefined) [Dropropizine]
11 | 97.7 | 98.5 | 92.1 | 94.1 | 18.8 | 109 | 103 | CN(C)C(=O)Nc1ccc(Cl)c(Cl)c1 [Diuron]
12 | 99.4 | – | – | 95.1 | 13.4 | 104 | 102 | c1ccc2[nH]nnc2c1 [Benzotriazol]
13 | 75.6 | 63.6 | 77 | 124 | 23.4 | 104 | 108 | O=C([O-])c1cc(Oc2ccc(Cl)cc2Cl)ccc1[N+](=O)[O-] [Bifenox-acid]
14 | 94.5 | 93.4 | 88.3 | 89 | 11.6 | 105 | 94.2 | C[N+](C)([O-])CCC(c1ccccc1)c1ccccn1 (centres undefined) [Pheniramine-N-oxide]
15 | 90.1 | 82.6 | 79.4 | 89 | 20 | 22.9 | 37.9 | C1=Cc2ccccc2Nc2ccccc21 [Iminostilben]
16 | 91.5 | 102 | 97 | 101 | 10.2 | 99.2 | 104 | Cn1ncc(N)c(Cl)c1=O [Chloridazon-methyl-desphenyl]
17 | 96.4 | 94.1 | 93.9 | 92.9 | 19.3 | 105 | 103 | CC(C)(Oc1ccc(Cl)cc1)C(=O)[O-] [Clofibric-acid]
18 | 62.3 | 66.9 | 62.4 | 78.1 | 11.4 | 73.6 | 72.1 | C#CC[NH+](C)Cc1ccccc1 [N-Methyl-N-propargylbenzylamine]

Row | absolute recovery ([1]; nanopure water) [%] | absolute recovery ([1]; surface water) [%] | absolute recovery ([1]; wastewater effluent) [%] | absolute recovery ([1]; wastewater influent) [%] | LC retention time [2] [min] | absolute recovery ([3]; wastewater effluent) [%] | absolute recovery ([3]; wastewater influent) [%] | Structure (SMILES)
19 | 90.8 | 95.6 | 94.2 | 96.6 | 10.5 | 106 | 107 | CC(=O)Nc1nnc(S([NH-])(=O)=O)s1 [Acetazolamide]
20 | 87.3 | 84 | 85.4 | 97.2 | 15.7 | 102 | 106 | Cc1cc(C(C)(C)C)cc(C)c1CC1=[NH+]CCN1 [Xylometazolin]
21 | 40.5 | 50.1 | 44.7 | 66.6 | 14.1 | 105 | 91 | COc1ccc(C(C[NH3+])C2(O)CCCCC2)cc1 (centres undefined) [N-N-Didesvenlafaxin]
22 | 100 | 95.5 | 89.9 | 136 | 15.9 | 100 | 95.6 | CN(C)S(=O)(=O)Nc1ccccc1 [DMSA (=N-N-Dimethylaminosulfanilid)]
23 | 107 | 100 | 101 | 79 | 16.3 | 106 | 115 | CSc1nc(N)nc(NC(C)(C)C)n1 [Irgarol-descyclopropyl]
24 | 97.9 | 97.8 | 89.8 | 90.1 | 14.5 | 112 | 107 | Cc1nnc(-c2ccccc2)c(=O)[n-]1 [Metamitron-Desamino]
25 | 76.1 | 73.6 | 78 | 65 | 24.6 | 84.4 | 62.4 | CCCOc1nc2ccc(I)cc2c(=O)n1CCC [Proquinazid]
26 | 97.3 | 98.9 | 92.1 | 75.4 | 10.5 | 108 | 104 | CC(C)[NH2+]CC(O)COc1ccc(CC(=O)[O-])cc1 (centres undefined) [Atenolol-acid (=Metoprolol acid)]
27 | 99.4 | 112 | 102 | 86.1 | 18.6 | 105 | 106 | CNC(=O)Nc1ccc(Cl)c(Cl)c1 [Diuron-desmonomethyl (=DCPMU)]
28 | 97.7 | 88.8 | 91.5 | 138 | 15.5 | 95 | 96.1 | CCCC(NC(C)C(=O)N1C(C(=O)[O-])CC2CCCCC21)C(=O)OCC (centres undefined) [Perindopril]
29 | 94.2 | 94.6 | 95.3 | 94.3 | 19.7 | 108 | 102 | CC(C)OC(=O)NC(C(=O)NC(C)c1nc2ccc(F)cc2s1)C(C)C (centres undefined) [Benthiavalicarb-isopropyl]
30 | 98.3 | 100 | 96.4 | 94.9 | 18 | 101 | 102 | NC(=O)Nc1ccc(Cl)c(Cl)c1 [Diuron-desdimethyl (=1-(3-4-Dichlorophenyl)urea)]
31 | 99.1 | 97.9 | 90.7 | 94 | 14.5 | 108 | 96 | CC(=O)Nc1ccc(S(=O)(=O)[N-]c2cc(C)on2)cc1 [N4-Acetyl-Sulfamethoxazol]
32 | 98.5 | 86 | 82.7 | 99 | 20.8 | 106 | 102 | CC(C)(Oc1ccc(C(=O)c2ccc(Cl)cc2)cc1)C(=O)[O-] [Fenofibric-acid]
33 | 84.8 | 88.8 | 88.4 | 107 | 13.1 | 103 | 101 | NS(=O)(=O)Cc1noc2ccccc12 [Zonisamide]
34 | 96.2 | 91.2 | 94.4 | 90.7 | 17.7 | 101 | 109 | CSc1nc(=O)c(C(C)(C)C)n[n-]1 [Metribuzin-Desamino (=DA)]
35 | 85.2 | 92.4 | 86.9 | 87.6 | 21 | 106 | 99.5 | CC(C)c1nc(CN(C)C(=O)NC(C(=O)NC(Cc2ccccc2)CC(O)C(Cc2ccccc2)NC(=O)OCc2cncs2)C(C)C)cs1 (centres undefined) [Ritonavir]

Row | Structure (SMILES) | absolute recovery ([1]; nanopure water) [%] | absolute recovery ([1]; surface water) [%] | absolute recovery ([1]; wastewater effluent) [%] | absolute recovery ([1]; wastewater influent) [%] | LC retention time [2] [min] | absolute recovery ([3]; wastewater effluent) [%] | absolute recovery ([3]; wastewater influent) [%]
36 | CNC(=O)Oc1cc(C)c(SC)c(C)c1 [Methiocarb] | 96.3 | 95.4 | 92.7 | 88.7 | 19.4 | 67.9 | 64
37 | O=C([O-])C(c1ccccc1)C1CCCC[NH2+]1 (centres undefined) [Ritalinic-acid] | 104 | 77.4 | 88.9 | 79.8 | 12.3 | 110 | 104
38 | CC(O)(CS(=O)(=O)c1ccc(F)cc1)C(=O)Nc1ccc(C#N)c(C(F)(F)F)c1 (centres undefined) [Bicalutamid] | 100 | 97 | 94.3 | 95.2 | 18.6 | – | 102
39 | COc1cccc(C2(O)CCCCC2C[NH3+])c1 (centres undefined) [N-Bisdesmethyl-Tramadol] | 50.1 | 47.4 | 46.3 | 70.2 | 12.8 | 105 | 98.5
40 | CN1C(=O)CN=C(C2=CCCCC2)c2cc(Cl)ccc21 [Tetrazepam] | 86.9 | 63.8 | 64.4 | 72.4 | 19.9 | 105 | 100
41 | CCN(CC)C(=O)C(C)Oc1cccc2ccccc12 (centres undefined) [Napropamid] | 96.6 | 90.8 | 89.3 | 96.1 | 20.3 | 88.4 | 90.9
42 | CC1(C)CON(Cc2ccccc2Cl)C1=O [Clomazon] | – | 92.1 | 82.7 | 87.1 | 19 | 80.3 | 78
43 | Cc1cc(C)nc(Nc2ccccc2)n1 [Pyrimethanil] | 89.2 | 91.1 | 91.4 | 90.3 | 18.3 | 88.8 | 86.4
44 | COc1nc(NC(C)C)nc(NC(C)C)n1 [Prometon F] | 88.1 | 95.5 | 91.6 | 92.7 | 15.8 | 104 | 106
45 | COC(=O)Nc1nc2ccccc2[nH]1 [Carbendazim] | 96.1 | 94.3 | 93.2 | 94.1 | 10.8 | 105 | 103
46 | COc1cccc(C2(O)CCCCC2C[NH+](C)C)c1 (centres undefined) [Tramadol] | 94.2 | 85.7 | 92 | 91.6 | 12.2 | 82.8 | 144
47 | O=C1C(Cl)C(CCl)CN1c1cccc(C(F)(F)F)c1 (centres undefined) [Flurochloridon] | 98.1 | 104 | 106 | 98 | 19.9 | 92 | 60.5
48 | Cc1nn(-c2cc(NS(C)(=O)=O)c(Cl)cc2Cl)c(=O)n1C(F)F [Sulfentrazon] | 97.5 | 100 | 92.9 | 88.9 | 17.3 | 104 | 107
49 | CN1COCN(Cc2cnc(Cl)s2)C1=N[N+](=O)[O-] [Thiamethoxam] | 98.4 | 93.9 | 96.3 | 94.2 | 12.2 | 100 | 105
50 | O=[N+]([O-])C(Br)(CO)CO [Bronopol] | 13.9 | 6.4 | 7 | 7.8 | 9.24 | 52.8 | –
51 | N#Cc1cc(I)c([O-])c(I)c1 [Ioxynil] | 103 | 102 | 99.4 | 96.2 | 19.3 | 106 | 111
52 | COc1nc(C)nc(NC(=O)[N-]S(=O)(=O)c2ccccc2CCC(F)(F)F)n1 [Prosulfuron] | 106 | 113 | 104 | 102 | 19.3 | 108 | 102

— the supplement of paper PMC6470124
